This note sets out measurements from publication PMC6207642, “Real Time Monitoring of NADPH Concentrations in Corynebacterium glutamicum and Escherichia coli via the Genetically Encoded Sensor mBFP” (Frontiers in Microbiology, 2018).

What is called Km is the substrate concentration at which the rate is half of its maximum. Broadly, the Kd is a measure of binding affinity in units of concentration.

For test [1], the system named is T1, mBFP.
T1 construct: no tag mentioned; codon-optimized gene (amplicon 780 bp) used only in cells
Nature of the test: photometric benzaldehyde reductase assay, Michaelis-Menten fit. In kind it is biochemical, uncultured bacterium. The conditions noted are these: phosphate buffer pH 8, 30 °C.

The target in test [2] is T1, mBFP. Nature of the test: thermal shift (SYPRO Orange), concentration dependence. The conditions noted are these: NADPH 0-10 mM; 40 to 70 °C in 0.5 °C steps. Format: binding, uncultured bacterium.

SMILES strings stand for the structures.

For `NC(=O)C1=CN([C@@H]2O[C@H](COP(=O)(O)OP(=O)(O)OC[C@H]3O[C@@H](n4cnc5c(N)ncnc54)[C@H](OP(=O)(O)O)[C@@H]3O)[C@@H](O)[C@H]2O)C=CC1` [NADPH], the Km in test [1] (12.5 mM benzaldehyde, NADPH 0.5-180 μM) was determined as 41 µM. For the same compound, the Kd in test [2] turned out to be 640 µM.
`O=Cc1ccccc1` [benzaldehyde]: the Km in test [1] (200 μM NADPH, benzaldehyde 0.5-12.5 mM) was 3100 µM.
